Data on two compounds can be found in paper PMC10573062, “Synthesis, Structural Characterization, Cytotoxicity, and Protein/DNA Binding Properties of Pyridoxylidene-Aminoguanidine-Metal (Fe, Co, Zn, Cu) Complexes” (International Journal of Molecular Sciences, 2023).

The term IC50 denotes the point on the concentration scale where inhibition reaches its midpoint.

The subject of series [1] is HCT116 cell lines. Also noted: method as in PMID 30798514. The settings on record: previous study; cited from earlier work.
Series [2] concerns the target T1, bovine serum albumin (BSA) (Bos taurus, UniProt P02769).
T1 construct: purchased
Briefly: Spectrofluorometric titration of BSA (fluorescence quenching, double log Stern–Volmer, van't Hoff). It is filed as binding. The protocol:
(§1) The protein binding affinity of obtained compounds was analyzed by the spectrofluorometric titration of BSA and HSA solution by the solution containing obtained compounds. The mixture was irradiated by light with a wavelength of 295 (BSA) and 280 nm (HSA). Both proteins contain fluorescent amino acids within active pockets, and the binding process can be monitored through the change in intensity and position of the emitted light maxima. The fluorescent emission depends on the chemical environment of amino acids. The measurements for each complex were repeated at three temperatures to allow the determination of the thermodynamic parameters of binding.
(§2) The spectrofluorometric measurements were used to investigate the binding process of obtained compounds towards bovine serum albumin (BSA) and human serum albumin (HSA) on the Cary Eclipse MY2048CH03 instrument. The scan rate was 600 nm min^−1, and both slits were 5 nm. The excitation wavelengths were 295 nm and 280 nm for BSA and HSA, respectively. These energies are characteristics of the protein structure’s tryptophan and other fluorescent amino acid residues. The emission spectra were recorded between 310 and 500 nm. The concentration of proteins was held constant at 5 × 10^−6 M in […] phosphate buffer saline (pH = 7.4). The concentration of complexes changed from 1 to 10 × 10^−6 M, and the emission spectrum was recorded two minutes after the addition of compounds. The data were analyzed by the double log Stern–Volmer quenching equation (Equation (2)):(2) logI0−I/I=logKb+nlogQ
In the previous equation, I0 and I are the fluorescent emission intensities of BSA/HSA without and with added metal complexes, respectively; Kb is the binding constant; n is the number of binding places; and [Q] is the concentration of quenchers (metal complexes). […]

Series [3] has as its target T2, human serum albumin (HSA) (Homo sapiens, UniProt P02768).
T2 construct: purchased
Briefly: Spectrofluorometric titration of HSA (fluorescence quenching, double log Stern–Volmer, van't Hoff). In kind it is binding. How it is done:
as §1
The binding affinity of obtained complexes was also examined towards HSA as a transport protein relevant to the human body. The temperature range was changed to reflect better temperatures common for humans (32–42 °C). The representative example of the HAS fluorescence measurements is shown in Figure 9, along with van’t Hoff’s plot. The decrease in the fluorescence intensity emission was also dependent on the concentration of complexes. On average, the binding constants were similar to the ones calculated for BSA. […] High correlation coefficients, between 0.990 and 0.998, were calculated for the dependency described by Equation (2). The number of binding places is 1, proving that the same type of complexes were formed between investigated compounds and HAS as previously shown for BSA.
as §2
In the previous equation, I0 and I are the fluorescent emission intensities of BSA/HSA without and with added metal complexes, respectively; Kb is the binding constant; n is the number of binding places; and [Q] is the concentration of quenchers (metal complexes).
The changes in enthalpy and entropy of the binding process were determined from the vant’t Hoff equation (Equation (3)) following the measurements at three temperatures (27, 32, and 37 °C):(3) lnKb=−∆Hb/RT+∆Sb/R

In series [4] the test system is HCT116 colorectal carcinoma. Nature of the series: MTT viability assay, HCT116. The settings on record: 72 h of treatment. In kind it is cell-based, human. How it is done: (§3) The following cell lines were used in this study: human cell lines (A375 melanoma, MCF-7 breast cancer, HCT116 colorectal carcinoma, and A2780 ovarian cancer. These cell lines were purchased from the American Type Culture Collection (Rockville, MD, USA). The A2780 cells were cultivated in DMEM, while all other cell lines were cultivated in the HEPES-buffered RPMI-1640 medium. The cell culture mediums were supplemented with penicillin (1000 units/mL), streptomycin (100 µg/mL), and 10% inactivated FBS. All cells were cultivated at 37 °C in a humidified atmosphere with 5% CO2.
(§4) Two colorimetric viability assays were applied, namely 3-(4,5-dimethylthiazol-2-yl)-2,5-diphenyl-2H-tetrazolium bromide (MTT) and crystal-violet (CV) (Sigma Aldrich, St. Louis, MO, USA), according to the previous studies. The cells were seeded overnight in 96-well plates: A2780 and MRC-5 8 × 10^3 cells/well, HCT 116 6 × 10^3 cells/well, A375 5 × 10^3 cells/well, and MCF-7 at 10 × 10^3 cells/well [67]. The standard solutions of complexes were prepared in DMSO. All cells were treated with the following concentrations of investigated compounds: 100, 50, 25, 12.5, 6.25, 3.125, and 1.56 µM. After 72 h of treatment, viability assays were conducted. For the CV assay, cells were fixed using 4% paraformaldehyde (PFA) for 20 min at room temperature after being washed once with PBS. Afterward, they were stained with 0.2% CV solution for 25 min. This procedure was followed by washing with double distilled water. The cells were left to dry overnight at room temperature. In the last step, 33% acetic acid was used to dissolve the remaining dye. The other test included incubating cells in MTT solution (0.5 mg L^−1 in cell culture medium) for […] at 37 °C in a humid environment with 5% CO2. After one hour, the MTT solution was discarded, and the formed formazan was dissolved using DMSO. A plate reader (Spectromax, Molecular Devices, San Jose, CA, USA) was utilized for the absorption measurements at 570 and 670 (background) nm. The cell viability was calculated as the percentage compared to untreated cells, and the mean was obtained using a four-parametric logistic function. Each of the three independent experiments was performed in quadruplicate.
For orientation: Formazan colour is commonly taken as a measure of viable cells.

The test system of series [5] is HCT116 colorectal carcinoma. Nature of the series: CV (crystal-violet) viability assay, HCT116. In kind it is cell-based, human. The settings on record: 72 h of treatment. The protocol: as §3, §4
The test system of series [6] is A375 melanoma. Nature of the series: MTT viability assay, A375. To be noted: 72 h of treatment. In kind it is cell-based, human. The protocol:
as §3
as §4, with “After one hour, the MTT solution was discarded, and the formed formazan was dissolved using DMSO.” left out, “Each of the three independent experiments was performed in quadruplicate.” left out

The subject of series [7] is A375 melanoma. Nature of the series: CV (crystal-violet) viability assay, A375. In kind it is cell-based, human. The settings on record: 72 h of treatment. How it is done: as §3
as §4, with “After one hour, the MTT solution was discarded, and the formed formazan was dissolved using DMSO.” left out, “Each of the three independent experiments was performed in quadruplicate.” left out

The test system of series [8] is MCF-7 breast cancer. Nature of the series: MTT viability assay, MCF-7. It is filed as cell-based, human. To be noted: MCF-7, MTT, 72 h of treatment. The protocol:
as §3, §4

Series [9] deals with MCF-7 breast cancer. Briefly: CV (crystal-violet) viability assay, MCF-7. The settings on record: MCF-7, CV, 72 h of treatment. In kind it is cell-based, human. How it is done:
as §3, §4

Series [10] deals with A2780 ovarian cancer. Briefly: MTT viability assay, A2780. It is filed as cell-based, human. To be noted: 72 h of treatment. How it is done: as §3, §4
Series [11] concerns A2780 ovarian cancer. Briefly: CV (crystal-violet) viability assay, A2780. The settings on record: 72 h of treatment. It is filed as cell-based, human. How it is done: as §3, §4
Series [12] can be described thus: Qualitative solubility in solvents. It is filed as physicochemical.
Setting [13] is: van't Hoff over three temperatures.

T2 sequence (P02768 25-609): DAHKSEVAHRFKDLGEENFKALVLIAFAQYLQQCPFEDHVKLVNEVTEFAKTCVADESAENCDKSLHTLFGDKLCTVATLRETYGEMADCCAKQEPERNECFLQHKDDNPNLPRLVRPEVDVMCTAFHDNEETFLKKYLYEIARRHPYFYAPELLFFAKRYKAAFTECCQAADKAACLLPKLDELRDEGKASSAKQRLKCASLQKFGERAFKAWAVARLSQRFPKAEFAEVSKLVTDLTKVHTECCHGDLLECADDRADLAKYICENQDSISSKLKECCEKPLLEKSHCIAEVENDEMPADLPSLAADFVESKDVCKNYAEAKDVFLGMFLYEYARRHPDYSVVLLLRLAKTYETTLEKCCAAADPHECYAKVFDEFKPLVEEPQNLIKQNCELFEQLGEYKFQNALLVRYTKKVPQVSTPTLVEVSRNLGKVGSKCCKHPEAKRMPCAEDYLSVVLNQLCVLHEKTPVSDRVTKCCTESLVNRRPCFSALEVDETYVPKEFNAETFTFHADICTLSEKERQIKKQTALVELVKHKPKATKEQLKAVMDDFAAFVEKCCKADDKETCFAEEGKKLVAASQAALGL
T1 sequence (P02769 25-607): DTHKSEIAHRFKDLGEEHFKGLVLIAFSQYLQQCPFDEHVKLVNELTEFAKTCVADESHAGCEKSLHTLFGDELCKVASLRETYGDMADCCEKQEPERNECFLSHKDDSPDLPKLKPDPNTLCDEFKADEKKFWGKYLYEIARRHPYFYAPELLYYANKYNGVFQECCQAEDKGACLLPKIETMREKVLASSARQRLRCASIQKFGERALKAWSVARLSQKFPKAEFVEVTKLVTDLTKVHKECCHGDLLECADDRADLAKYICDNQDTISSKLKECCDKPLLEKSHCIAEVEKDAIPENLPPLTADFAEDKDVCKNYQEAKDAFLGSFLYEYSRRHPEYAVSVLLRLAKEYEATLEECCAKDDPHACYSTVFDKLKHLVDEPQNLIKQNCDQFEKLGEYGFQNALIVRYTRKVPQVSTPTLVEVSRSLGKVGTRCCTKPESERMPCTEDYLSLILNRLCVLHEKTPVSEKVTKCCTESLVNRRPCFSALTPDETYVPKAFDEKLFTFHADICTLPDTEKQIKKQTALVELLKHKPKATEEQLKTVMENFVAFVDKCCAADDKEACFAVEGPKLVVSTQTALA

For `O=S(=O)([O-])[O-].[Cu+2]` [CuSO4], in series [1], the “activity towards HCT116 cell line” value was “almost completely inactive”.

For [Co(PLAG)2]SO4^.2H2O [Co-PLAG], the “Kb (binding constant)” value in [2] (27 °C) turned out to be 18600 M⁻¹; in [2] (32 °C), 20400 M⁻¹; in series [2] (35 °C) it was 22900 M⁻¹. Also, the “n (number of binding places)” value in series [2] (27 °C) turned out to be 0.97; in series [2] (32 °C), 0.98; in [2] (35 °C), 0.96; in series [3] (32 °C) it was 1.05; in [3] (37 °C), 1.08; in [3] (42 °C), 1.16. The ΔGb in [2] (27 °C) was -24.51 kJ/mol; in series [2] (32 °C), -25.19 kJ/mol; in [2] (35 °C) it was -25.86 kJ/mol; in [3] (32 °C), -23.34 kJ/mol; in series [3] (37 °C) it was -28.29 kJ/mol; in [3] (42 °C) it was -33.24 kJ/mol. In addition, the ΔHb in [2] (setting [13]) worked out at 16.01 kJ/mol; in series [3] (setting [13]), 278.64 kJ/mol. Besides, the ΔSb in series [2] (setting [13]) is 135.08 J mol^−1 K^−1; in [3] (setting [13]), 990.11 J mol^−1 K^−1. The IC50 in [4], in series [5], in [6], in series [7], in series [8] and in series [9] was > 100 µM throughout. Also, the IC50 in series [10] and in series [11] was > 100 µM in each case. In addition, the solubility result is given as “soluble” in series [12] (in chloroform, dimethylsulfoxide, dimethylformamide, acetone, and acetonitrile); “insoluble” in [12] (in diethyl ether and toluene); “moderately soluble” in series [12] (in methanol, ethanol, phosphate buffer saline, and water).
